We go through 3 molecules from patent US10988523B2, “Modified lipidated Relaxin B chain peptides and their therapeutic use” (Sanofi, priority 2018, dated 2021).

*1 amine or outer side, *2 acyl side, *3 side chain or, on linkers, in order; H or OH if unused. Where a SMILES comes first, the peptide text is derived from it. Side-chain parts run from the residue outwards. [ ]: non-standard residue; d: D form. The star is where a group is joined. X13 = CCCCCCCCCCCCCCCC(=O)N[C@@H](CCC(=O)N[C@@H](CCC(=O)N[C@@H](CCC(=O)NCCCC[C@H](NC(=O)COCC(=O)NCCCOCCOCCOCCCN*)C(N)=O)C(=O)O)C(=O)O)C(=O)O; Docosanoyl = CCCCCCCCCCCCCCCCCCCCCC(=O)*; γGlu = O=C(O)[C@H](CCC(=O)[*:2])N[*:1]; Myristoyl = CCCCCCCCCCCCCC(=O)*; αMeK = C[C@](N)(CCCCN)C(=O)O; Nle = CCCC[C@H](N)C(=O)O; AEEA = NCCOCCOCC(=O)O; Aib = CC(C)(N)C(=O)O

This test addresses T1, RXFP1 (Homo sapiens, UniProt Q9HBX9).
T1 construct: OVCAR5 cells expressing endogenous RXFP1; endogenous in cells; host or cells: OVCAR5 cells
T1 sequence (Q9HBX9 1-757): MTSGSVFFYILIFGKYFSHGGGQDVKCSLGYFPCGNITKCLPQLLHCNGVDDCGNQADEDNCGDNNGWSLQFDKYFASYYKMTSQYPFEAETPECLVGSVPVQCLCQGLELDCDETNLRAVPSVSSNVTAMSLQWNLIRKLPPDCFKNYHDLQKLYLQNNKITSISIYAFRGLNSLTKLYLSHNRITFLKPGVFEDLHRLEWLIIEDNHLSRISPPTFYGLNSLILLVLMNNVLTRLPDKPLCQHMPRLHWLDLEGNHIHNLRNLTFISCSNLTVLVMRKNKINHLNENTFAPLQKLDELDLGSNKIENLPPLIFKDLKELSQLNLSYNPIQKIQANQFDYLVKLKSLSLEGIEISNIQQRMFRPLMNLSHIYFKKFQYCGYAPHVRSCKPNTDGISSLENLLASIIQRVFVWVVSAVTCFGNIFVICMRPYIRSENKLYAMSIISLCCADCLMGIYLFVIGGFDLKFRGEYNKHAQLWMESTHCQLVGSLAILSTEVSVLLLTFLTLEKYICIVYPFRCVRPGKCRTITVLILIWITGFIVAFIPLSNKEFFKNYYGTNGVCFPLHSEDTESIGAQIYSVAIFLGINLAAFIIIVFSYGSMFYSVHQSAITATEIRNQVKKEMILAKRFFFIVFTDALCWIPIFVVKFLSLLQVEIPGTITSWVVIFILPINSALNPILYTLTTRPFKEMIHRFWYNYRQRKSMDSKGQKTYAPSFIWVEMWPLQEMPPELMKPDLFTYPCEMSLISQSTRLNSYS
The test is described as follows: OVCAR5 cAMP assay (HTRF), RXFP1 agonist activity. In kind it is cell-based. Particulars: for EC50: OVCAR5 cells, cAMP HTRF, read-out: EC50 (nM), OVCAR 5 cells (cAMP); for Emax: OVCAR-5, maximal cAMP relative to H2-relaxin maximum (100%), read-out: EMax, OVCAR 5 cells (cAMP). Put shortly:
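OVCAR5 cells (endogenous RXFP1) pretreated 40 min at 37° C with 1 mM IBMX, then exposed to peptides in serum-free medium for 30 min at 37° C. Lysate cAMP read by HTRF; EC50 from variable-slope sigmoidal fit; Emax as % of H2-relaxin maximal cAMP in same run.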

Usually EC50 stands for the concentration giving half of the maximal effect. As usually defined, the Emax is the maximal effect, on the per cent scale that the assay sets. On to `CCCCCCCCCCCCCC(=O)N[C@@H](CCC(=O)N[C@@H](CCC(=O)N[C@@H](CCC(=O)N[C@@H](CCC(=O)NCCCC[C@H](NC(=O)COCCOCCNC(=O)COCCOCCNC(=O)COCCOCCNC(=O)COCCOCCNC(=O)[C@H](CCCCNC(C)=O)NC(=O)[C@H](C)NC(=O)[C@H](CCCNC(=N)N)NC(=O)[C@](C)(CCCCN)NC(=O)[C@H](CO)NC(=O)[C@H](Cc1ccccc1)NC(=O)[C@@H](NC(=O)[C@H](CO)NC(=O)[C@H](CCCC)NC(=O)CNC(=O)[C@H](CCC(=O)O)NC(=O)C(C)(C)NC(=O)C(C)(C)NC(=O)[C@@H](NC(=O)[C@H](CCCCNC(C)=O)NC(=O)[C@H](C)NC(=O)[C@H](CCCNC(=N)N)NC(=O)[C@@H](NC(=O)[C@H](CCCCN)NC(=O)[C@H](CCC(=O)O)NC(=O)[C@H](CCCNC(=N)N)NC(=O)CNC(=O)[C@H](CCC(=O)O)NC(=O)[C@H](CC(C)C)NC(C)=O)C(C)C)[C@@H](C)CC)[C@@H](C)O)C(N)=O)C(=O)O)C(=O)O)C(=O)O)C(=O)O` [compound 172] (Ac-LEGREKVRAK(Ac)I[Aib][Aib]EG[Nle]STFS[αMeK]RAK(Ac)[AEEA][AEEA][AEEA][AEEA]K([γGlu-γGlu-γGlu-γGlu-Myristoyl])-NH2), for which the EC50 was 0.56 nM and the Emax amounted to 95%.
In the same order, the values of `CCCCCCCCCCCCCCCCCCCCCC(=O)N[C@@H](CCC(=O)N[C@@H](CCC(=O)N[C@@H](CCC(=O)NCCOCCOCC(=O)NCCOCCOCC(=O)NCCOCCOCC(=O)NCCCC[C@H](NC(=O)[C@H](CCCCNC(C)=O)NC(=O)[C@H](CCCCN)NC(=O)[C@H](CCCNC(=N)N)NC(=O)C(C)(C)NC(=O)[C@H](CO)NC(=O)[C@H](Cc1c[nH]c2ccccc12)NC(=O)[C@@H](NC(=O)[C@H](CO)NC(=O)[C@H](CCCC)NC(=O)CNC(=O)[C@H](CCC(=O)O)NC(=O)C(C)(C)NC(=O)C(C)(C)NC(=O)[C@@H](NC(=O)[C@H](CCCCNC(C)=O)NC(=O)[C@H](C)NC(=O)[C@H](CCCNC(=N)N)NC(=O)[C@@H](NC(=O)[C@H](CCCCN)NC(=O)[C@H](CCC(=O)O)NC(=O)[C@H](CCCNC(=N)N)NC(=O)CNC(=O)[C@H](CCC(=O)O)NC(=O)[C@H](CC(C)C)NC(C)=O)C(C)C)[C@@H](C)CC)[C@@H](C)O)C(N)=O)C(=O)O)C(=O)O)C(=O)O` [compound 173] (Ac-LEGREKVRAK(Ac)I[Aib][Aib]EG[Nle]STWS[Aib]RKK(Ac)K([AEEA-AEEA-AEEA-γGlu-γGlu-γGlu-Docosanoyl])-NH2) are 0.19 nM and 85%.
On to `CCCCCCCCCCCCCCCC(=O)N[C@@H](CCC(=O)N[C@@H](CCC(=O)N[C@@H](CCC(=O)NCCCC[C@H](NC(=O)COCC(=O)NCCCOCCOCCOCCCNC(=O)[C@H](CCCCNC(C)=O)NC(=O)[C@H](CCCCN)NC(=O)[C@H](CCCNC(=N)N)NC(=O)C(C)(C)NC(=O)[C@H](CO)NC(=O)[C@H](Cc1c[nH]c2ccccc12)NC(=O)[C@@H](NC(=O)[C@H](CO)NC(=O)[C@H](CCCC)NC(=O)CNC(=O)[C@H](CCC(=O)O)NC(=O)C(C)(C)NC(=O)C(C)(C)NC(=O)[C@@H](NC(=O)[C@H](CCCCNC(C)=O)NC(=O)[C@H](C)NC(=O)[C@H](CCCNC(=N)N)NC(=O)[C@@H](NC(=O)[C@H](CCCCN)NC(=O)[C@H](CCC(=O)O)NC(=O)[C@H](CCCNC(=N)N)NC(=O)CNC(=O)[C@H](CCC(=O)O)NC(=O)[C@H](CC(C)C)NC(C)=O)C(C)C)[C@@H](C)CC)[C@@H](C)O)C(N)=O)C(=O)O)C(=O)O)C(=O)O` [compound 175] (Ac-LEGREKVRAK(Ac)I[Aib][Aib]EG[Nle]STWS[Aib]RKK(Ac)-X13), for which the Emax came out at 87%.
